Test results published in patent US8404825B2, “Method for producing monoterpene and monoterpinoid compounds and use thereof” (Board of Regents of the Nevada System of Higher Education, …, priority 2008, dated 2013).

Key:
[1] = test system: recombinant Ipi12D04; test: Functional assay of recombinant Ipi12D04 (pyridine nucleotide assay at 340 nm, GC-MS of products); assay type: biochemical, Ips pini; conditions: for reaction product of reduction by Ipi12D04 enzyme (stereoisomer by chiral GC): in the presence of NADPH, chiral column, compared with racemic standard
Description: Enzyme activity is determined by a pyridine nucleotide (PN) binding assay that monitors production or consumption of NADH/NADPH by measuring the absorbance of the catalysts reaction at 340 nm using a spectrophotometer. The reactions include reaction buffer (0.1 M NaP pH 7.8 and 1.1 mM EDTA), enzyme, PN, and substrate (monoterpene) in a 1 ml total volume and the absorbance was measured over time at room temperature. The volatiles produced from the reactions were extracted three times with pentane:ether (1:1) spiked with 200 n g/ml n-octanol (internal standard) and concentrated to approximately 100 ul with nitrogen gas. The samples were directly analyzed by coupled GC-MS at the Nevada Proteomics Center at UNR.
Enzyme activity was determined by a pyridine nucleotide (PN) binding assay that monitored production or consumption of NADH/NADPH spectrophotometrically. The reaction mixture included reaction buffer (0.1 M NaP pH 7.8 and 1.1 mM EDTA), enzyme, PN, and substrate (monoterpene) in a 1 ml total volume. The absorbance was measured over time at room temperature. The reactions were extracted three times with pentane:ether (1:1) spiked with 200 ng/ml n-octanol (internal standard) to extract monoterpenoids and concentrated to approximately 100 ul with nitrogen gas. The samples were directly analyzed by coupled GC-MS at the Nevada Proteomics Center at UNR.
Biochemical reactions catalyzed by recombinant Ipi12D04, as determined by functional assays, are summarized below. In general, the enzyme functions as an oxidoreductase, using NAD(P) or NAD(P)H as cofactors, depending on whether it is oxidizing or reducing a substrate. […] Negative controls for all reactions included media from un-infected cells.

[2] = test system: western populations of Ips pini; conditions: cited from earlier work
[3] = test system: I. calligraphus; conditions: southeast U.S.; cited from earlier work
[4] = test system: Ips. typographus; conditions: cited from earlier work

For `C=CC(=C)C[C@@H](O)CC(C)C` [(+)-ipsenol], the “expected conversion by Ipi12D04 enzyme” value ([1]; enzyme incubated with both NAD(P) and NAD(P)H) was “readily converted to (−)-ipsenol”.
In the case of `C=CC(=C)CC(O)C=C(C)C` (racemic) [racemic ipsdienol, ipsdienol], the “attractiveness as aggregation pheromone” value [2] is given as “not attractive at all” and the “reaction product of oxidation by Ipi12D04 enzyme” value ([1]; with NADP, GC and mass spectrum compared with ipsdienone standard) is given as “converts racemic ipsdienol to ipsdienone”.
In the case of `C=CC(=C)CC(=O)CC(C)C` [ipsenone], the “reaction product of reduction by Ipi12D04 enzyme (stereoisomer by chiral GC)” value [1] is reported as “reaction product was pure (−)-ipsdienol”.
In the case of `C=CC(=C)CC(O)C=C(C)C` (single isomer, unassigned; (+)) [(+)-ipsdienol], the “behavioural response (attraction / dispersal)” value [3] is listed as “dispersed”.
In the case of `C=CC(=C)C[C@@H](O)CC(C)C` [ipsenol], the behavioural response [4] is listed as “anti-aggregation pheromone”.
With `C=CC(=C)CC(=O)C=C(C)C` [ipsdienone] the “reaction product of reduction by Ipi12D04 enzyme (stereoisomer by chiral GC)” value [1] was “reaction product was pure (−)-ipsdienol”.
For `C=CC(=C)CC(O)C=C(C)C` (single isomer, unassigned; (-)) [(−)-ipsdienol, 2-methyl-6-methylene-2,7-octadien-4-ol], the “behavioural response (attraction / dispersal)” value [3] is listed as “attracted”.
